assay: Stability testing of the preferred embodiment tablet under accelerated storage conditions (ingredient content as % of claim); format: physicochemical; settings: 0 wk; 40 +/- 2 deg C and 75 +/- 5% RH; 150 cc white HDPE bottle

Compound	Result as % of claim at indicated weeks
CC1=C(/C=C/C(C)=C/C=C/C(C)=C/C=C/C=C(C)/C=C/C=C(C)/C=C/C2=C(C)CCCC2(C)C)C(C)(C)CCC1 [Beta Carotene]	123 % of claim
O=C(O)CCCC[C@@H]1SC[C@@H]2NC(=O)N[C@@H]21 [Biotin]	105 % of claim
[Zn] [Zinc]	121 % of claim
[Se] [Selenium]	103 % of claim
[Cr] [Chromium]	139 % of claim
Cc1cc2nc3c(=O)[nH]c(=O)nc-3n(C[C@H](O)[C@H](O)[C@H](O)CO)c2cc1C [Vitamin B2, Riboflavin]	132 % of claim
[Mn+2] [Manganese]	119 % of claim
Nc1nc2ncc(CNc3ccc(C(=O)N[C@@H](CCC(=O)O)C(=O)O)cc3)nc2c(=O)[nH]1 [Folic Acid]	169 % of claim
O=C1O[C@H]([C@@H](O)CO)C(O)=C1O [Vitamin C]	108 % of claim

The remaining lines, values ahead:

Result as % of claim at indicated weeks	Compound
116 % of claim	Cc1ncc(CO)c(CO)c1O.Cl [Vitamin B6]
126 % of claim	Vitamin E
136 % of claim	Vitamin A
131 % of claim	CC(C)=CCC/C(C)=C/C=C/C(C)=C/C=C/C(C)=C/C=C/C=C(C)/C=C/C=C(C)/C=C/C=C(\C)CCC=C(C)C [Lycopene]
108 % of claim	Silicon
115 % of claim	[Cu] [Copper]

same assay, conditions: 4 wk; 40 +/- 2 deg C and 75 +/- 5% RH; 150 cc white HDPE bottle

Compound	Result as % of claim at indicated weeks
CC1=C(/C=C/C(C)=C/C=C/C(C)=C/C=C/C=C(C)/C=C/C=C(C)/C=C/C2=C(C)CCCC2(C)C)C(C)(C)CCC1 [Beta Carotene]	139 % of claim
O=C(O)CCCC[C@@H]1SC[C@@H]2NC(=O)N[C@@H]21 [Biotin]	101 % of claim
[Zn] [Zinc]	109 % of claim
[Se] [Selenium]	136 % of claim
[Cr] [Chromium]	128 % of claim
Cc1cc2nc3c(=O)[nH]c(=O)nc-3n(C[C@H](O)[C@H](O)[C@H](O)CO)c2cc1C [Vitamin B2, Riboflavin]	123 % of claim
[Mn+2] [Manganese]	114 % of claim
Nc1nc2ncc(CNc3ccc(C(=O)N[C@@H](CCC(=O)O)C(=O)O)cc3)nc2c(=O)[nH]1 [Folic Acid]	132 % of claim
O=C1O[C@H]([C@@H](O)CO)C(O)=C1O [Vitamin C]	106 % of claim

Second part, the compound after the results:

Result as % of claim at indicated weeks	Compound
109 % of claim	Cc1ncc(CO)c(CO)c1O.Cl [Vitamin B6]
115 % of claim	Vitamin E
134 % of claim	Vitamin A
144 % of claim	CC(C)=CCC/C(C)=C/C=C/C(C)=C/C=C/C(C)=C/C=C/C=C(C)/C=C/C=C(C)/C=C/C=C(\C)CCC=C(C)C [Lycopene]
111 % of claim	[Cu] [Copper]

same assay, conditions: 8 wk; 40 +/- 2 deg C and 75 +/- 5% RH; 150 cc white HDPE bottle

Compound	Result as % of claim at indicated weeks
CC1=C(/C=C/C(C)=C/C=C/C(C)=C/C=C/C=C(C)/C=C/C=C(C)/C=C/C2=C(C)CCCC2(C)C)C(C)(C)CCC1 [Beta Carotene]	130 % of claim
O=C(O)CCCC[C@@H]1SC[C@@H]2NC(=O)N[C@@H]21 [Biotin]	100 % of claim
[Zn] [Zinc]	117 % of claim
[Se] [Selenium]	123 % of claim
[Cr] [Chromium]	120 % of claim
Cc1cc2nc3c(=O)[nH]c(=O)nc-3n(C[C@H](O)[C@H](O)[C@H](O)CO)c2cc1C [Vitamin B2, Riboflavin]	125 % of claim
[Mn+2] [Manganese]	115 % of claim
Nc1nc2ncc(CNc3ccc(C(=O)N[C@@H](CCC(=O)O)C(=O)O)cc3)nc2c(=O)[nH]1 [Folic Acid]	125 % of claim
O=C1O[C@H]([C@@H](O)CO)C(O)=C1O [Vitamin C]	103 % of claim

Second part, the compound after the results:

Result as % of claim at indicated weeks	Compound
110 % of claim	Cc1ncc(CO)c(CO)c1O.Cl [Vitamin B6]
110 % of claim	Vitamin E
113 % of claim	Vitamin A
170 % of claim	CC(C)=CCC/C(C)=C/C=C/C(C)=C/C=C/C(C)=C/C=C/C=C(C)/C=C/C=C(C)/C=C/C=C(\C)CCC=C(C)C [Lycopene]
109 % of claim	Silicon
111 % of claim	[Cu] [Copper]

same assay, conditions: 13 wk; 40 +/- 2 deg C and 75 +/- 5% RH; 150 cc white HDPE bottle

Compound	Result as % of claim at indicated weeks
CC1=C(/C=C/C(C)=C/C=C/C(C)=C/C=C/C=C(C)/C=C/C=C(C)/C=C/C2=C(C)CCCC2(C)C)C(C)(C)CCC1 [Beta Carotene]	144 % of claim
O=C(O)CCCC[C@@H]1SC[C@@H]2NC(=O)N[C@@H]21 [Biotin]	114 % of claim
[Zn] [Zinc]	108 % of claim
[Se] [Selenium]	129 % of claim
[Cr] [Chromium]	133 % of claim
Cc1cc2nc3c(=O)[nH]c(=O)nc-3n(C[C@H](O)[C@H](O)[C@H](O)CO)c2cc1C [Vitamin B2, Riboflavin]	123 % of claim
[Mn+2] [Manganese]	115 % of claim
Nc1nc2ncc(CNc3ccc(C(=O)N[C@@H](CCC(=O)O)C(=O)O)cc3)nc2c(=O)[nH]1 [Folic Acid]	120 % of claim
[Ca+2] [Calcium]	120 % of claim
O=C1O[C@H]([C@@H](O)CO)C(O)=C1O [Vitamin C]	114 % of claim

Further lines, results first:

Result as % of claim at indicated weeks	Compound
137 % of claim	Cc1ncc(CO)c(CO)c1O.Cl [Vitamin B6]
125 % of claim	Vitamin E
106 % of claim	Vitamin A
156 % of claim	CC(C)=CCC/C(C)=C/C=C/C(C)=C/C=C/C(C)=C/C=C/C=C(C)/C=C/C=C(C)/C=C/C=C(\C)CCC=C(C)C [Lycopene]
122 % of claim	Silicon
114 % of claim	[Cu] [Copper]

same assay, conditions: 26 wk; 40 +/- 2 deg C and 75 +/- 5% RH; 150 cc white HDPE bottle

Compound	Result as % of claim at indicated weeks
CC1=C(/C=C/C(C)=C/C=C/C(C)=C/C=C/C=C(C)/C=C/C=C(C)/C=C/C2=C(C)CCCC2(C)C)C(C)(C)CCC1 [Beta Carotene]	124 % of claim
O=C(O)CCCC[C@@H]1SC[C@@H]2NC(=O)N[C@@H]21 [Biotin]	93.0 % of claim
[Zn] [Zinc]	112 % of claim
[Se] [Selenium]	126 % of claim
[Cr] [Chromium]	121 % of claim
Cc1cc2nc3c(=O)[nH]c(=O)nc-3n(C[C@H](O)[C@H](O)[C@H](O)CO)c2cc1C [Vitamin B2, Riboflavin]	123 % of claim
[Mn+2] [Manganese]	113 % of claim
Nc1nc2ncc(CNc3ccc(C(=O)N[C@@H](CCC(=O)O)C(=O)O)cc3)nc2c(=O)[nH]1 [Folic Acid]	117 % of claim
[Ca+2] [Calcium]	118 % of claim
O=C1O[C@H]([C@@H](O)CO)C(O)=C1O [Vitamin C]	104 % of claim

Second part, the compound after the results:

Result as % of claim at indicated weeks	Compound
114 % of claim	Cc1ncc(CO)c(CO)c1O.Cl [Vitamin B6]
121 % of claim	Vitamin E
110 % of claim	Vitamin A
150 % of claim	CC(C)=CCC/C(C)=C/C=C/C(C)=C/C=C/C(C)=C/C=C/C=C(C)/C=C/C=C(C)/C=C/C=C(\C)CCC=C(C)C [Lycopene]
107 % of claim	Silicon
109 % of claim	[Cu] [Copper]

assay: Dissolution of ingredients from the tablet during accelerated stability testing; format: physicochemical; settings: 0 wk; 40 +/- 2 deg C and 75 +/- 5% RH; 150 cc white HDPE bottle

Compound	Dissolution, result as % of claim at indicated weeks
[Zn] [Zinc]	117 % of claim
Cc1cc2nc3c(=O)[nH]c(=O)nc-3n(C[C@H](O)[C@H](O)[C@H](O)CO)c2cc1C [Vitamin B2, Riboflavin]	133 % of claim

same assay, conditions: 4 wk; 40 +/- 2 deg C and 75 +/- 5% RH; 150 cc white HDPE bottle

Compound	Dissolution, result as % of claim at indicated weeks
[Zn] [Zinc]	102 % of claim
Cc1cc2nc3c(=O)[nH]c(=O)nc-3n(C[C@H](O)[C@H](O)[C@H](O)CO)c2cc1C [Vitamin B2, Riboflavin]	120 % of claim

same assay, conditions: 8 wk; 40 +/- 2 deg C and 75 +/- 5% RH; 150 cc white HDPE bottle

Compound	Dissolution, result as % of claim at indicated weeks
[Zn] [Zinc]	104 % of claim
Cc1cc2nc3c(=O)[nH]c(=O)nc-3n(C[C@H](O)[C@H](O)[C@H](O)CO)c2cc1C [Vitamin B2, Riboflavin]	109 % of claim

same assay, conditions: 13 wk; 40 +/- 2 deg C and 75 +/- 5% RH; 150 cc white HDPE bottle

Compound	Dissolution, result as % of claim at indicated weeks
[Zn] [Zinc]	107 % of claim
Cc1cc2nc3c(=O)[nH]c(=O)nc-3n(C[C@H](O)[C@H](O)[C@H](O)CO)c2cc1C [Vitamin B2, Riboflavin]	119 % of claim
[Ca+2] [Calcium]	119 % of claim

same assay, conditions: 26 wk; 40 +/- 2 deg C and 75 +/- 5% RH; 150 cc white HDPE bottle

Compound	Dissolution, result as % of claim at indicated weeks
Cc1cc2nc3c(=O)[nH]c(=O)nc-3n(C[C@H](O)[C@H](O)[C@H](O)CO)c2cc1C [Vitamin B2, Riboflavin]	125 % of claim
[Ca+2] [Calcium]	115 % of claim

Reference: patent publication US20020132800A1, “Dietary supplement composition and method for improving and maintaining healthy skin” (priority 2000, published 2002)
